In this experiment the target is Leukotriene B4 receptor (Cavia porcellus). The experiment is described as follows: Tested for inhibition of specific binding of [3H]LTB4 to guinea pig lung membranes expressing LTB4 receptor.

`CCc1cc(-c2ccccc2)c(O)cc1OCCCOc1ccc2c(=O)c3cc(C(=O)O)ccc3oc2c1CCC(=O)O` [5-(2-Carboxy-ethyl)-6-[3-(5-ethyl-2-hydroxy-biphenyl-4-yloxy)-propoxy]-9-oxo-9H-xanthene-2-carboxylic acid] registered a Ki of 0.11 nM. Under `CCc1cc(-c2ccccc2)c(O)cc1OCCCOc1ccc2c(=O)c3ccccc3oc2c1CCC(=O)O` [3-{3-[3-(5-Ethyl-2-hydroxy-biphenyl-4-yloxy)-propoxy]-9-oxo-9H-xanthen-4-yl}-propionic acid] stands 12 nM.

The values are drawn from BindingDB's records for doi:10.1021/jm00076a030 (Eli Lilly, 1994).
